Values of other authors as cited in patent US20190000808A1, “COMPOSITION AND METHODS FOR THE TREATMENT OF BLEPHOPHAROPTOSIS” (Allergan, Inc., priority 2015, published 2019).

Experiments:
[1] = tested on: alpha-1 adrenergic receptors on Muller's muscle; conditions: single drop, typically 2.5%; temporary reversal of ptosis

| Compound | tolerability (accommodation of the eye; topical concentrations above 0.5%, side effects red eyes, ocular pain, brow ache, headache) | effect on accommodation of the eye (accommodation of the eye; topical concentrations below 0.5%) | eyelid elevation [1] |
| --- | --- | --- | --- |
| CC[C@@H]1C(=O)OC[C@@H]1Cc1cncn1C [Pilocarpine, (3S,4R)-3-Ethyl-4((1-methyl-1H-imidazol-5-yl)methyl)dihydrofuran-2(3H)-one] | not tolerated | minimal effect | – |
| CNC[C@H](O)c1cccc(O)c1 [phenylephrine] | – | – | causes eyelid elevation |
